From patent publication US11685732B2, “MYST family histone acetyltransferase inhibitors” (Epizyme, Inc., priority 2017, dated 2023)

What was measured:
KAT-5 = KAT-5 (Homo sapiens (Human), UniProt Q92993); assay: KAT-5 biochemical inhibition assay (SAMDI mass spectrometry)
Method in brief: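 Acetylation of 1 μM peptide by 9 nM enzyme with 0.5 μM acetyl-CoA (final) was run 90 min at 25° C in Tris pH 8.0 buffer with DTT, after compound preincubation at 2% DMSO. Formic acid stopped the reaction, and product was quantified by SAMDI mass spectrometry to derive IC50.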

KAT-6A = KAT-6A (Homo sapiens (Human), UniProt Q92794); assay: KAT-6A biochemical inhibition assay (SAMDI mass spectrometry)
Method in brief: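 IC50 values came from SAMDI time-of-flight mass spectrometry after formic acid quench (0.5% final). Acetylation ran 90 min at 25 °C with 1 μM acetyl coenzyme A and 1 μM peptide substrate, following compound pre-incubation with 12.5 nM KAT-6A in Tris buffer pH 8.0 containing DTT, 2% DMSO final.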

KAT-7 = KAT-7 (Homo sapiens (Human), UniProt O95251); assay: KAT-7 biochemical inhibition assay (SAMDI mass spectrometry)
Method in brief: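 Read-out was SAMDI time-of-flight MS of formic acid-quenched reactions (0.5% final). Compound dilutions (2% DMSO final) were pre-incubated with 6 nM KAT-7 in 50 mM Tris pH 8.0 with 1 mM DTT, then given 1 μM peptide substrate and 2 μM acetyl-CoA for 120 min at 25 °C. IC50 values were derived.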

KAT-8 = KAT-8 (Homo sapiens (Human), UniProt Q9H7Z6); assay: KAT-8 biochemical inhibition assay (SAMDI mass spectrometry)
Method in brief: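 Acetylation of 1 μM peptide substrate with 5 μM acetyl-CoA by 12.5 nM enzyme, compound pre-incubated, 2% DMSO, Tris pH 8.0 buffer with DTT, 25 °C for 90 min. Quench with 0.5% formic acid; product read by SAMDI mass spectrometry to give IC50.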

Sequence of KAT-8 (Q9H7Z6 other isoform, or with tags, fused parts or gaps): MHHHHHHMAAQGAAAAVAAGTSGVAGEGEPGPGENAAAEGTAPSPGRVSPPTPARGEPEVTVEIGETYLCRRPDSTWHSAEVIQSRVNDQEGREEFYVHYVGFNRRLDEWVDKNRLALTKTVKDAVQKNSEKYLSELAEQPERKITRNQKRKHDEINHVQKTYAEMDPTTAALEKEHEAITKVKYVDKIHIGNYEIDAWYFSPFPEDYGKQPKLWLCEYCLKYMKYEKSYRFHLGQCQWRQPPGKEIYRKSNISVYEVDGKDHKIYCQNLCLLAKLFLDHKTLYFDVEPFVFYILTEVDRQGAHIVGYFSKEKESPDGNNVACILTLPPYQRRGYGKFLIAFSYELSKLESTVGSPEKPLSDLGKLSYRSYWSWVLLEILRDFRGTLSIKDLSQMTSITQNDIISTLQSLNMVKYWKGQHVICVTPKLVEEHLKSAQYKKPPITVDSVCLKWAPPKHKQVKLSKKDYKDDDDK
Sequence of KAT-5 (Q92993 other isoform, or with tags, fused parts or gaps): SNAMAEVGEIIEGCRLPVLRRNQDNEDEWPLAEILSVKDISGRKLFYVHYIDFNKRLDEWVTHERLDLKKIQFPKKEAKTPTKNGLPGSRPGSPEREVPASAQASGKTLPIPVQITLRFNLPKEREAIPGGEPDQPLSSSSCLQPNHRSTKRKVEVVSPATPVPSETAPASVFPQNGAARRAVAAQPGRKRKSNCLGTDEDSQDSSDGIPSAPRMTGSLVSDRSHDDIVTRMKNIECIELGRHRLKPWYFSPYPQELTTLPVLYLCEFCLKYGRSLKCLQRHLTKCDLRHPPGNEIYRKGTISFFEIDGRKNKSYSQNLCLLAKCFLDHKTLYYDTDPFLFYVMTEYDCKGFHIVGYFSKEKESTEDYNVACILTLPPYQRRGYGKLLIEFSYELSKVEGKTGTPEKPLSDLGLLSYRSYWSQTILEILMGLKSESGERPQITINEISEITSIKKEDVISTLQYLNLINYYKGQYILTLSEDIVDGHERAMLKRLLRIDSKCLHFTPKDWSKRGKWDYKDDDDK
Sequence of KAT-7 (O95251 other isoform, or with tags, fused parts or gaps): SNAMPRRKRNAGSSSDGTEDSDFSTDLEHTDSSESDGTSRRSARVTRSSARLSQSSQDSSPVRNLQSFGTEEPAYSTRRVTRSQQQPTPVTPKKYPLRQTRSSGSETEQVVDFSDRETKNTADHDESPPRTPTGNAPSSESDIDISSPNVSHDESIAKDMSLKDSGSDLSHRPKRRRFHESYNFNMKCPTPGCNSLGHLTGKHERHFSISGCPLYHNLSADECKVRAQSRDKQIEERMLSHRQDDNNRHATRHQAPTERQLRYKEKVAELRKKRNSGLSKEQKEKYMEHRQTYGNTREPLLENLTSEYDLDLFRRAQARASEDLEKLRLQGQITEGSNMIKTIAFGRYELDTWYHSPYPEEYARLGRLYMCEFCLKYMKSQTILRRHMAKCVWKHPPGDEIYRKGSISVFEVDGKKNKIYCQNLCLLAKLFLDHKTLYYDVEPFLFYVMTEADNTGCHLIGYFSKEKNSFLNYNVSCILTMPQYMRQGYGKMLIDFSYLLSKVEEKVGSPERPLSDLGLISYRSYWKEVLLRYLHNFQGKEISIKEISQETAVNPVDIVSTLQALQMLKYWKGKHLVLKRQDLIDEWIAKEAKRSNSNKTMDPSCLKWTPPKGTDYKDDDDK
Sequence of KAT-6A (Q92794 other isoform, or with tags, fused parts or gaps): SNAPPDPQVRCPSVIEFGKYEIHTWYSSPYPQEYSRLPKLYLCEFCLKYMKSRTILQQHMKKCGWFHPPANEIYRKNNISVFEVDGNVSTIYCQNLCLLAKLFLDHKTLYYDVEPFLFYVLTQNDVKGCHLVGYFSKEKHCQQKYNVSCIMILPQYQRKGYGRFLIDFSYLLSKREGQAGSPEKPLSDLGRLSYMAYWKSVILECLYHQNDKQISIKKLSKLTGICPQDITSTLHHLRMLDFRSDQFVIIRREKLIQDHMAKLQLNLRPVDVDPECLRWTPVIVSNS

IC50 (KAT-5) [µM]	IC50 (KAT-6A) [µM]	IC50 (KAT-7) [µM]	IC50 (KAT-8) [µM]	SMILES
< 10	< 10	< 10	10 to 50	Cn1cnc(-c2cc(Cl)c(F)c(C(=O)NNS(=O)(=O)C[C@H]3CC[C@H](NC(=O)Cc4ccncc4)CC3)c2)c1 [Compound I-254]
10 to 50	10 to 50	< 10	10 to 50	CN[C@H]1CC[C@@H](CS(=O)(=O)NNC(=O)c2cc(-c3cn(C)cn3)cc(Cl)c2F)CC1 [Compound I-364]
< 10	< 10	< 10	10 to 50	CC1CCC(CS(=O)(=O)NNC(=O)c2cc(-c3cn(C)cn3)cc(Cl)c2F)CC1 (stereo not shown) [Compound I-313]
10 to 50	< 10	< 10	10 to 50	CCCS(=O)(=O)N1CC(CS(=O)(=O)NNC(=O)c2cc(-c3cn(C)cn3)cc(Cl)c2F)C1 [Compound I-178]
10 to 50	10 to 50	< 10	10 to 50	Cn1cnc(-c2cc(Cl)c(F)c(C(=O)NNS(=O)(=O)CC3CCN(C(=O)CCO)C3)c2)c1 (stereo not shown) [Compound I-83]
< 10	10 to 50	< 10	> 100	Cc1cc(-c2cn(C)cn2)cc(C(=O)NNS(=O)(=O)CC2CCOCC2)c1F [Compound I-130]
10 to 50	10 to 50	< 10	> 100	CCn1cc(S(=O)(=O)NNC(=O)c2cc(-c3cn(C)cn3)cc(Cl)c2F)cn1 [Compound I-52]
< 10	10 to 50	< 10	10 to 50	Cn1cnc(-c2cc(Cl)c(F)c(C(=O)NNS(=O)(=O)CC3(C)CCOCC3)c2)c1 [Compound I-239]
< 10	< 10	< 10	10 to 50	CCNC(=O)N[C@H]1C[C@@H](CS(=O)(=O)NNC(=O)c2cc(-c3cn(C)cn3)cc(Cl)c2F)C1 [Compound I-107]
< 10	< 10	< 10	> 100	CNc1ccccc1S(=O)(=O)NNC(=O)c1cc(-c2cn(C)cn2)cc(Cl)c1F [Compound I-385]
< 10	10 to 50	10 to 50	10 to 50	O=C(NNS(=O)(=O)CC1CCOCC1)c1cc(-c2cocn2)cc(Cl)c1F [Compound I-68]
< 10	< 10	< 10	10 to 50	Cn1cnc(-c2cc(Cl)c(F)c(C(=O)NNS(=O)(=O)C[C@H]3CC[C@H](N(C)C(=O)OC(C)(C)C)CC3)c2)c1 [Compound I-332]
10 to 50	10 to 50	10 to 50	10 to 50	Cn1cnc(-c2cc(Cl)c(F)c(C(=O)NNC3CCS(=O)(=O)C3)c2)c1 (stereo not shown) [Compound I-232]
< 10	< 10	< 10	< 10	Cn1cnc(-c2cc(Cl)c(F)c(C(=O)NNS(=O)(=O)C[C@H]3CC[C@@H](NC(N)=O)CC3)c2)c1 [Compound I-200]
10 to 50	10 to 50	< 10	10 to 50	Cn1cnc(-c2cc(F)c(F)c(C(=O)NNS(=O)(=O)CC3CCOCC3)c2)c1 [Compound I-150]
50 to 100	50 to 100	< 10	> 100	Cn1cnc(-c2cc(Cl)c(F)c(C(=O)NNS(=O)(=O)C3CCC3)c2)c1 [Compound I-12]
10 to 50	< 10	< 10	10 to 50	Cn1cnc(-c2cc(Cl)c(F)c(C(=O)NNS(=O)(=O)c3nccn3C)c2)c1 [Compound I-284]
< 10	< 10	< 10	10 to 50	COCCN(Cc1ccc(OC)cc1)C(=O)N1CCC(CS(=O)(=O)NNC(=O)c2cc(-c3cn(C)cn3)cc(Cl)c2F)C1 (stereo not shown) [Compound I-189]
< 10	< 10	< 10	10 to 50	CC1CCCC(CS(=O)(=O)NNC(=O)c2cc(-c3cn(C)cn3)cc(Cl)c2F)C1 (stereo not shown) [Compound I-302]
10 to 50	10 to 50	< 10	10 to 50	Cn1cnc(-c2cc(F)c(F)c(C(=O)NNS(=O)(=O)C3CCOCC3)c2)c1 [Compound I-149]

The next lines start with the compound.

SMILES	IC50 (KAT-5) [µM]	IC50 (KAT-6A) [µM]	IC50 (KAT-7) [µM]	IC50 (KAT-8) [µM]
COCC(=O)N1CCCC(CS(=O)(=O)NNC(=O)c2cc(-c3cn(CCO)cn3)cc(C)c2F)C1 (stereo not shown) [Compound I-148]	10 to 50	10 to 50	10 to 50	10 to 50
CCNC(=O)N[C@H]1C[C@H](CS(=O)(=O)NNC(=O)c2cc(-c3cn(C)cn3)cc(Cl)c2F)C1 [Compound I-112]	< 10	10 to 50	< 10	10 to 50
CC(C)S(=O)(=O)NNC(=O)c1cc(-c2cn(C)cn2)cc(Cl)c1F [Compound I-14]	50 to 100	> 100	10 to 50	> 100
COCc1nc(-c2cc(Cl)c(F)c(C(=O)NNS(=O)(=O)CC3CCCCC3)c2)cn1C [Compound I-226]	< 10	10 to 50	< 10	10 to 50
Cn1cnc(-c2cc(Cl)c(F)c(C(=O)NNS(=O)(=O)CC3CCC4CCC3N4)c2)c1 (stereo not shown) [Compound I-251]	10 to 50	10 to 50	< 10	10 to 50
Cn1cnc(-c2cc(Cl)c(F)c(C(=O)NNS(=O)(=O)C[C@H]3CC[C@H](NC(=O)c4ccccn4)CC3)c2)c1 [Compound I-245]	< 10	< 10	< 10	10 to 50
CC1CCNCC1CS(=O)(=O)NNC(=O)c1cc(-c2cn(C)cn2)cc(Cl)c1F (stereo not shown) [Compound I-307]	10 to 50	10 to 50	10 to 50	10 to 50
Cc1cc(-c2cn(CCO)cn2)cc(C(=O)NNS(=O)(=O)CC2CCOCC2)c1F [Compound I-146]	10 to 50	10 to 50	10 to 50	> 100
O=C(NNS(=O)(=O)CC1CCCCC1)c1cc(-n2ccnn2)cc(Cl)c1F [Compound I-87]	10 to 50	< 10	10 to 50	10 to 50
Cc1ncc(-c2cc(Cl)c(F)c(C(=O)NNS(=O)(=O)C3CCOCC3)c2)n1C [Compound I-54]	50 to 100	> 100	> 100	> 100
CCn1c(-c2cc(Cl)c(F)c(C(=O)NNS(=O)(=O)C3CCCCC3)c2)cnc1C [Compound I-61]	> 100	> 100	10 to 50	> 100
CCS(=O)(=O)NNC(=O)c1cc(-c2cn(C)cn2)cc(Cl)c1F [Compound I-25]	10 to 50	50 to 100	< 10	> 100
COCCn1nc(-c2cc(Cl)c(F)c(C(=O)NNS(=O)(=O)CC3CCCCC3)c2)cc1C [Compound I-233]	10 to 50	10 to 50	< 10	10 to 50
CCNC(=O)N1[C@H]2CC[C@@H](CS(=O)(=O)NNC(=O)c3cc(-c4cn(C)cn4)cc(Cl)c3F)[C@@H]1CC2 [Compound I-260]	< 10	< 10	< 10	10 to 50
